Test results from publication PMC7614683, “A small molecule PI3Kα activator for cardioprotection and neuroregeneration” (Nature, 2023).

Target: T1, PI3Kα E545K mutant (Homo sapiens, UniProt P42336, E545K)
T1 construct: Full-length human p110α was expressed either in a complex with full-length human p85α (for HTS, biochemistry and HDX-MS); 6xHis tag followed by TEV protease site (N); host or cells: Sf9, baculovirus
Test: ADP-Glo catalytic activity, oncogenic mutant E545K
Type: biochemical
Method: Expression and purification of wild-type p110α (Cambridge MRC Laboratory for Molecular Biology (LMB-MRC) plasmid number OP831) in a complex with full-length p85α (LMB-MRC plasmid OP809) was performed as described. The oncogenic mutants G106V (LMB-MRC plasmid JB35), N345K (LMB-MRC plasmid OP661) and E545K (LMB-MRC plasmid OP663) were also purified using this protocol. Briefly, 10 litres of Spodoptera frugiperda (Sf9) cell culture at a density of 1.0 x 10^6 cells/ml were co-infected with a p85α-encoding virus [LMB-MRC plasmid OP809]. and a virus encoding p110α with an N-terminal 6xHis tag followed by a tobacco etch virus (TEV) protease site [LMB-MRC plasmid OP831]. After a 48 h infection at 27°C, cells were harvested and washed with PBS. […]
For characterisation of the effects of 1938 on in vitro PI3K enzymology, all reactions were performed at room temperature with 384 white-polystyrene plates (Corning #3574). […] Data was expressed as velocity (nmol of ADP generated/nmol of enzyme/sec). […] Luminescence was read using a PHERAstar® plate reader with software version 5.41, and analyses were performed using GraphPad Prism 8/9.

T1 sequence (P42336 whole entry E545K): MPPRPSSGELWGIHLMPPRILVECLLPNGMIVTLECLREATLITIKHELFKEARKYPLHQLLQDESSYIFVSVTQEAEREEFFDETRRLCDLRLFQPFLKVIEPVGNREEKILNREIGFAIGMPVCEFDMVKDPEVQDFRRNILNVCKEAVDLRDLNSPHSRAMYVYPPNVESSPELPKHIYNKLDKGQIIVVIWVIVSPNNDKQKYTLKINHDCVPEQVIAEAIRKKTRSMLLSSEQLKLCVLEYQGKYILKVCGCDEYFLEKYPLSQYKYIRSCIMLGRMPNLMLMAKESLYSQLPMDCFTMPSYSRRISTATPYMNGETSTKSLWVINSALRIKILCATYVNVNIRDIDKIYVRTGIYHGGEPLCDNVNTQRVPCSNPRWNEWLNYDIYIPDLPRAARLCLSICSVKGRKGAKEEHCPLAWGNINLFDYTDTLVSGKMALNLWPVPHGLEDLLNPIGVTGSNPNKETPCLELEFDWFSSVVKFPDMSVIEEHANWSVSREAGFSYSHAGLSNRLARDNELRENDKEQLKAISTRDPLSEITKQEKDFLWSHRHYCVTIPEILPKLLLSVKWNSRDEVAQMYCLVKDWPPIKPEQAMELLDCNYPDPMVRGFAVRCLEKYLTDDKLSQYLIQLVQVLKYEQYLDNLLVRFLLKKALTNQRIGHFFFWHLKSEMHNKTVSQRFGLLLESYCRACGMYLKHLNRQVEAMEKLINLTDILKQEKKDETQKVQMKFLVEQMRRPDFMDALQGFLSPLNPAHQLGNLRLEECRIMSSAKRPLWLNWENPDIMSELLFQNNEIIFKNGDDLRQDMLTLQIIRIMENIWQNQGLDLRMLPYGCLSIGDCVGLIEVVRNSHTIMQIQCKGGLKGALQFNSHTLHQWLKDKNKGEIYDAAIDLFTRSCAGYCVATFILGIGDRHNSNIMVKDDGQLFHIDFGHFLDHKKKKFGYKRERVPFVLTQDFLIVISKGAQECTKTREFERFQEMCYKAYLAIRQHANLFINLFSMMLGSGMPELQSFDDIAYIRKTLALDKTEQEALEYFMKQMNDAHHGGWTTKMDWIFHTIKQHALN
T1 sequence (P27986 whole entry partner): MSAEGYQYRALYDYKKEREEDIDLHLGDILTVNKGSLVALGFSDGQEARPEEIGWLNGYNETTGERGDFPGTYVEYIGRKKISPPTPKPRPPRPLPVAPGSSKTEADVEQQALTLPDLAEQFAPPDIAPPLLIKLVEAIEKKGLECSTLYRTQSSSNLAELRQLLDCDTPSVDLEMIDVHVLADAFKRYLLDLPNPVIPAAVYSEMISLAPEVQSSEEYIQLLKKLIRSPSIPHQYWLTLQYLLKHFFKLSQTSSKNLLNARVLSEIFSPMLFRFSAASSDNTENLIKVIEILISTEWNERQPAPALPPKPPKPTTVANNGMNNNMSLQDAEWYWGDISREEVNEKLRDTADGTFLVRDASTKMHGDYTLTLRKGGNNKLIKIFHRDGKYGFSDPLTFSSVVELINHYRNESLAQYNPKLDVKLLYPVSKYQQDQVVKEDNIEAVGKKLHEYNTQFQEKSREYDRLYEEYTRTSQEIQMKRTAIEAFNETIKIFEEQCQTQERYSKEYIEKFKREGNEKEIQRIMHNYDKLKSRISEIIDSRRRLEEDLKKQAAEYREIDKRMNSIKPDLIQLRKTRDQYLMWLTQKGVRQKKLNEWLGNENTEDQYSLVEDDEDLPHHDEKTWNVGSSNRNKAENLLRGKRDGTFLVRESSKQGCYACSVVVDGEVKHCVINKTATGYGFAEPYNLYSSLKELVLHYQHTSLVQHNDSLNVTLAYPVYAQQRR

CCN1CCN(c2ccc(Nc3cc(Nc4cccc5c4N(C(C)=O)CC5)ccn3)cc2)CC1 [Compound 1938]
activation of E545K mutant: could be further activated by 1938
